Measured values as given in US20040254131A1, “Method for prevention or treatment of diseases or disorders related to excessive formation of vascular tissue or blood vessels” (priority 2003, published 2004).

Columns and labels:
rat NPY Y2 mRNA = assay: Hyperoxia/ischemia-induced retinal neovascularization (retinopathy) in newborn rats; assay type: in vivo; details: for retinal capillary vessel formation in fluorescein images (FIG. 3): fluorescence microscopy of flat-mounted retinas; for Mean ± SD of quantitated neovascularization (amount of retinal vessels crossed by a constant length line): newborn Sprague Dawley rats, cyclic hyperoxia 40%/80% then room air, intraperitoneal treatment, eyes collected at age 20 days
Description: The present study was undertaken to determine the impact of NPY Y2 receptor targeted intervention on neovascularization and development of retinopathy. Development of retinopathy was induced to newborn rats by cyclic hyperoxia and following relative ischemia-induced retinal neovascularization. Hyperoxemia is toxic to developing retinal vessels causing damage and hypoxia in the retina. After moving to normal air, relative hypoxia follows further promoting neovascularization of the retina.
Three groups of rat puppies were subjected for different treatments; 1) vehicle, 2) NPY Y2 receptor targeted antisense oligonucleotide sequence, and 3) scramble oligonucleotide sequence containing the same oligonucleotides as NPY Y2 receptor targeted antisense oligonucleotide sequence. The treatments were administered intraperitoneally. The retinal vessels were investigated and retinopathic changes were compared between treatment groups.
Retinopathy was assessed after injection of fluorescent-labelled dextran to the circulation. The eyes were flat-mounted on slides and the retinal vessels were visualized and investigated by fluorescence microscopy. Statistical differences were calculated between the study groups.
Study protocol was approved by the Joint Ethics Committee of Turku University. Development of retinopathy was induced to newborn rats (Sprague Dawley) by cyclic hyperoxia and following relative ischemia. Hyperoxia is toxic to developing retinal vessels causing damage and hypoxia in the retina, which induces neovascularization. After moving to normal air, relative hypoxia follows further promoting neovascularization of the retina. Hypoxia is one of the major causes of retinal neovascularization in human retinopathies also. The newborn rats were kept in a hyperoxic incubator with their mothers. Retinal neovascularization was induced simultaneously for all three groups of puppies. One treatment group consisted originally of 7 puppies, which underwent cyclic hyperoxia at the age of 3 days, continued until at the age of 14 days and remained in normal room air from the age of 14 to 17 days. The amount of oxygen inside the incubator was kept at 40% and 80% in 12 hour cycles for 10 days (days from 3 to 13).
The three groups of puppies were subjected for different treatments; 1) plain vehicle, 2) NPY Y2 receptor targeted antisense oligodeoxynucleotide sequence (5′-CCTCTGCACCTAATGGGCCC -3′ (SEQ ID NO:38), containing 20 thioate modified bases) diluted in vehicle and 3) scramble oligodeoxynucleotide sequence containing the same deoxynucleotides as NPY Y2 receptor targeted antisense oligodeoxynucleotide sequence but in a random order (5′-CCATGGTAATCCGCCGCTCC-3′ (SEQ ID NO:39), containing 20 thioate modified bases) diluted in vehicle. The treatments were administered intraperitoneally. The retinal vessels were investigated and retinopathic changes were compared between treatment groups. The used NPY Y2 receptor targeted antisense deoxynucleotide sequence was designed complementary to next 20 bases from NPY Y2 gene transcription initiation codon (ATG).
At the age of 20 days, rats were decapitated and eyes were collected. Retinopathy and retinal neovascularization was assessed after an injection of fluorescent-labelled dextran to the circulation trough heart puncture. One eye from each puppy was used for visualization of retinal vessels. The eyes were flat-mounted on slides and the retinal vessels were visualized and investigated by fluorescence microscopy. Pictures of retinas were acquired using a Leica DMR/DC100 microscope and Leica DC Wiever software.
The amount of retinal capillaries was analyzed by counting the amount of vessels crossed by a constant length line using plot profile analysis (Image-J 2.6 program). Each retina was analyzed in 3-5 representative areas and the mean values were used for further statistical analysis. Only unfolded retinal preparations were used in order to avoid artificial images of neovascularization. […]

hTERT-HUVEC cells = assay: Endothelial tube formation assay after liposomal transfection; assay type: cell-based, human; details: for mean ±SEM tube number/well, single nucleotide assay 4A / mean ±SEM tube number/well, single nucleotide assay 4b: oligonucleotide 1 μM, DOTAP/DOPE, 4 h transfection, 3 h on Matrigel; for mean ±SEM tube number/well, single nucleotide assay 4A: non-treated control 60±1.8; for mean ±SEM tube number/well, single nucleotide assay 4b: repeated set, non-treated control 58.0±2.9
Experimental: A further experiment was carried out in order to study the effect of single antisense molecules and their combinations in the prevention of endothelial cell tube formation by immortal human umbilical vein endothelial cells (hTERT-HUVECs).
Immortal human umbilical vein endothelial cells (hTERT-HUVECs) were obtained from Geron Corporation (Menlo Park, Calif., U.S.A.). hTERT-HUVECs were maintained on a gelatin-coated 100-mm dishes (Corning Costar, N.Y., U.S.A) in growth medium, composed of M199 medium (Gibco, Paisley, Scotland) supplement with 15% (v/v) heat-inactivated fetal bovine serum (Gibco BRL), 2 mM L-glutamine (Gibco BRL), 100 units/ml penicillin/streptomycin (Gibco BRL), 10 units/ml heparin (Sigma) and 20 μg/ml endothelial cell growth factor (Roche Biomolecules) at 37° C. in a humified incubator with 5% CO2 atmosphere. Experiments were performed with cells between passages 20 and 24.
The following phosphorothioate oligonucleotides were synthesized: human neuropeptide Y2-receptor mRNA antisense molecules
N-(1-(2,3-dioleoyloxy)propyl)-N,N,N-trimethyl ammonium methylsulfate (DOTAP) and 1,2-dioleoyl-3-phosphatidylethanolamine (DOPE) were purchased from Avanti Polar Lipids. Cationic liposomes composed of DOTAP/DOPE (1:1 by mol) were prepared as previously described (Ruponen et al., 2001 (43)).
hTERT-HUVECs (5×10^4 cells/well) were seeded onto gelatin-coated 48-multiwell plates (Corning Costar, N.Y., U.S.A) and incubated overnight. For transfection, the growth medium was replaced with 400 μl of transfection medium (M199 medium supplement with 2 mM L-glutamine and 100 units/ml penicillin/streptomycin). Oligonucleotides (final concentration 1 μM) and DOTAP/DOPE liposomes in sterile water were first diluted in MES-HEPES buffered saline (50 mM MES, 50 mM HEPES, 75 mM NaCl, pH 7.2) and then mixed together at a charge ratio +1. The transfection mixture was allowed to stand at room temperature for 20 min and the oligonucleotide/liposome complexes (100 μl) were added dropwise to each well.
After transfection for 4 h hTERT-HUVECs were harvested after trypsin treatment, suspended in growth medium (200 μl) and seeded in growth factor-reduced Matrigel (BD Biosciences) coated 96-well plates (Corning Costar, N.Y., U.S.A). After incubation for 3 h cells were fixed in 4% paraformaldehyde. The formation of tubular structures in each well (7 fields/well) was digitally captured using a Nicon Eclipse TE300 Inverted Microscope (Nicon, Tokyo, Japan) equipped with a Nicon F-601 digital camera (Nicon, Tokyo, Japan). Photographs were taken at 4× magnification.
The efficacy in prevention of formation of tubular structures by hTERT-HUVECs of all 5 synthesized antisense molecules were compared against each others alone and in combination. The number of tubular structures was analyzed by using Adobe Photoshop 5.5 (Adobe Systems Inc., San Jose, Calif., U.S.A) and the results were expressed as means ±SEM of three independent experiments. A set of three experiments was repeated.

Row | Substance | retinal capillary vessel formation in fluorescein images (FIG. 3) (rat NPY Y2 mRNA) | Mean ± SD of quantitated neovascularization (amount of retinal vessels crossed by a constant length line) (rat NPY Y2 mRNA) | mean ±SEM tube number/well, single nucleotide assay 4A (hTERT-HUVEC cells) | mean ±SEM tube number/well, single nucleotide assay 4b (hTERT-HUVEC cells) | other results
1 | 5′-CCATGGTAATCCGCCGCTCC-3′ (CCATGGTAATCCGCCGCTCC; DNA, all phosphorothioate, methylation of C not given here; listed as Rattus sp.) [Scramble, scramble oligodeoxynucleotide, same deoxynucleotides as the Y2 antisense in random order, reference compound] | irregular and disrupted | 31.12 ± 0.93 |  |  | difference in retinal neovascularization versus vehicle treatment group (rat NPY Y2 mRNA; post hoc comparison): no difference
2 | 5′-CCCAGGTTATCCACGTCTCC-3′ (DNA, all phosphorothioate, methylation of C not given here; listed as Homo sapiens) [AS-1 control, control oligonucleotide for AS-1, reference compound] |  |  | 49.3±8.2 tube number/well | 57.0±7.0 tube number/well | 
3 | 5′-CCTCTGCACCTAATGGGCCC -3′ (antisense CCTCTGCACCTAATGGGCCC; DNA, all phosphorothioate, methylation of C not given here; listed as Rattus sp.) [Y2-antisense, NPY Y2 receptor targeted antisense oligodeoxynucleotide corresponding to rat NPY Y2 mRNA] | regular and continuous | 24.58 ± 0.84 |  |  | mean difference in neovascularization compared to vehicle treatment group (rat NPY Y2 mRNA; post hoc Tukey HSD, p<0.001, 95% CI 2.48-8.33): 5.40; mean difference in neovascularization compared to scramble treatment group (rat NPY Y2 mRNA; post hoc Tukey HSD, p<0.001, 95% CI 3.76-9.31): 6.53
4 | 5′-CCTCTGCACCTATTGGACCC-3′ (DNA, all phosphorothioate, methylation of C not given here; listed as Homo sapiens) [AS-1, human neuropeptide Y2-receptor mRNA antisense molecule] |  |  | 44.0±5.6 tube number/well | 54.3±10.1 tube number/well | 
5 | 5′-GGCCACTGTTCTTTCTGACC-3′ (DNA, all phosphorothioate, methylation of C not given here; listed as Homo sapiens) [AS-3, human neuropeptide Y2-receptor mRNA antisense molecule] |  |  | 28±7.1 tube number/well | 23.0±6.7 tube number/well | efficacy in prevention of tubular structures formation by hTERT-HUVECs (ranking in words) (hTERT-HUVEC cells; FIGS. 4A-4D): best efficacy
6 | 5′-GTTTGTGGCCCGTATTGTTCC-3′ (DNA, all phosphorothioate, methylation of C not given here; listed as Homo sapiens) [AS-2, human neuropeptide Y2-receptor mRNA antisense molecule] |  |  | 70.3±11.3 tube number/well | 75.0±7.5 tube number/well | 
